Data: ChEMBL document CHEMBL1124001, “Synthesis and antileukemic activity of bis[[(carbamoyl)oxy]methyl]- substituted pyrrolo[2,1-a]isoquinolines, pyrrolo[1,2-a]quinolines, pyrrolo[2,1-a]isobenzazepines, and pyrrolo[1,2-a]benzazepines” (J Med Chem, 1988)

How the values were obtained:
Mus musculus [1] = assay: Net log cell kill was determined after injecting 1.87 mg/kg intraperitoneally in CD2F1 mice; assay type: functional; details: route intraperitoneal
Mus musculus [2] = assay: Net log cell kill was determined after injecting 30 mg/kg intraperitoneally in CD2F1 mice; assay type: functional; details: route intraperitoneal
Mus musculus [3] = assay: Toxicity day survivors was determined by the ratio of animals survived to that of test animals at 30 mg/kg intraperitoneally in CD2F1 mice; 6/6; assay type: organism-based; set-up: dose 30 mg/kg, route intraperitoneal; details: in vivo, ip
Mus musculus [4] = assay: Body weight change of test animals to that of control was determined after injection at 1.87 mg/kg intraperitoneally in CD2F1 mice; assay type: functional; details: route intraperitoneal
Mus musculus [5] = assay: Net log cell kill was determined after injecting 3.75 mg/kg intraperitoneally in CD2F1 mice; assay type: functional; details: route intraperitoneal
Mus musculus [6] = assay: Net log cell kill was determined after injecting 15 mg/kg intraperitoneally in CD2F1 mice; assay type: functional; details: route intraperitoneal
Mus musculus [7] = assay: Ratio of treated to that of untreated tumor-bearing control animals at 3.75 mg/kg intraperitoneally in CD2F1 mice was determined; assay type: functional; details: route intraperitoneal
Mus musculus [8] = assay: Toxicity day survivors was determined by the ratio of animals survived to that of test animals at 1.87 mg/kg intraperitoneally in CD2F1 mice; 5/5; assay type: organism-based; set-up: dose 1.87 mg/kg, route intraperitoneal; details: in vivo, ip
Mus musculus [9] = assay: Ratio of treated to that of untreated tumor-bearing control animals at 7.5 mg/kg intraperitoneally in CD2F1 mice was determined; assay type: functional; details: route intraperitoneal
Mus musculus [10] = assay: Ratio of treated to that of untreated tumor-bearing control animals at 30 mg/kg intraperitoneally in CD2F1 mice was determined; assay type: functional; details: route intraperitoneal
Mus musculus [11] = assay: Toxicity day survivors was determined by the ratio of animals survived to that of test animals at 60 mg/kg intraperitoneally in CD2F1 mice; 0/6; assay type: organism-based; set-up: dose 60 mg/kg, route intraperitoneal; details: in vivo, ip
Mus musculus [12] = assay: Ratio of treated to that of untreated tumor-bearing control animals at 1.87 mg/kg intraperitoneally in CD2F1 mice was determined; assay type: functional; details: route intraperitoneal
Mus musculus [13] = assay: Body weight change of test animals to that of control was determined after injection at 7.5 mg/kg intraperitoneally in CD2F1 mice; assay type: functional; details: route intraperitoneal
Mus musculus [14] = assay: Body weight change of test animals to that of control was determined after injection at 30 mg/kg intraperitoneally in CD2F1 mice; assay type: functional; details: route intraperitoneal
Mus musculus [15] = assay: Net log cell kill was determined after injecting 7.5 mg/kg intraperitoneally in CD2F1 mice; assay type: functional; details: route intraperitoneal
Mus musculus [16] = assay: Body weight change of test animals to that of control was determined after injection at 15 mg/kg intraperitoneally in CD2F1 mice; assay type: functional; details: route intraperitoneal
Mus musculus [17] = assay: Body weight change of test animals to that of control was determined after injection at 3.75 mg/kg intraperitoneally in CD2F1 mice; assay type: functional; details: route intraperitoneal
Mus musculus [18] = assay: Toxicity day survivors was determined by the ratio of animals survived to that of test animals at 7.5 mg/kg intraperitoneally in CD2F1 mice; 4/4; assay type: organism-based; set-up: dose 7.5 mg/kg, route intraperitoneal; details: in vivo, ip
Mus musculus [19] = assay: Toxicity day survivors was determined by the ratio of animals survived to that of test animals at 15 mg/kg intraperitoneally in CD2F1 mice; 4/4; assay type: organism-based; set-up: dose 15 mg/kg, route intraperitoneal; details: in vivo, ip
Mus musculus [20] = assay: Ratio of treated to that of untreated tumor-bearing control animals at 15 mg/kg intraperitoneally in CD2F1 mice was determined; assay type: functional; details: route intraperitoneal
Mus musculus [21] = assay: Toxicity day survivors was determined by the ratio of animals survived to that of test animals at 3.75 mg/kg intraperitoneally in CD2F1 mice; 5/5; assay type: organism-based; set-up: dose 3.75 mg/kg, route intraperitoneal; details: in vivo, ip
Mus musculus [22] = assay: Toxicity day survivors was determined by the ratio of animals survived to that of test animals at 3.75 mg/kg intraperitoneally in CD2F1 mice; 6/6; assay type: organism-based; set-up: dose 3.75 mg/kg, route intraperitoneal; details: in vivo, ip
Mus musculus [23] = assay: Toxicity day survivors was determined by the ratio of animals survived to that of test animals at 1.87 mg/kg intraperitoneally in CD2F1 mice; 6/6; assay type: organism-based; set-up: dose 1.87 mg/kg, route intraperitoneal; details: in vivo, ip
Mus musculus [24] = assay: Toxicity day survivors was determined by the ratio of animals survived to that of test animals at 7.5 mg/kg intraperitoneally in CD2F1 mice; 6/6; assay type: organism-based; set-up: dose 7.5 mg/kg, route intraperitoneal; details: in vivo, ip
Mus musculus [25] = assay: Toxicity day survivors was determined by the ratio of animals survived to that of test animals at 15 mg/kg intraperitoneally in CD2F1 mice; 0/6; assay type: organism-based; set-up: dose 15 mg/kg, route intraperitoneal; details: in vivo, ip

| SMILES | KE (Mus musculus [1]) | T-C (Mus musculus [4]) | KE (Mus musculus [5]) | T/C (Mus musculus [7]) | T/C (Mus musculus [9]) | T/C (Mus musculus [12]) | T-C (Mus musculus [13]) | KE (Mus musculus [15]) | T-C (Mus musculus [17]) | other results |
| --- | --- | --- | --- | --- | --- | --- | --- | --- | --- | --- |
| COc1ccc2c(c1)CCc1c(COC(=O)NC(C)C)c(COC(=O)NC(C)C)c(C)n1-2 | -1.56 | -0.6 g | -1.45 | 105% | 116% | 97% | -2.9 g | -1.31 | -0.8 g | KE (Mus musculus [2]): 1.51; TDS (Mus musculus [3]): 6; KE (Mus musculus [6]): 1.43; TDS (Mus musculus [8]): 5; T/C (Mus musculus [10]): 160%; TDS (Mus musculus [11]): 0; T-C (Mus musculus [14]): -4.2 g; T-C (Mus musculus [16]): -6.5 g; TDS (Mus musculus [18]): 4; TDS (Mus musculus [19]): 4; T/C (Mus musculus [20]): 150%; TDS (Mus musculus [21]): 5 |
| Cc1c(COC(=O)NC(C)C)c(COC(=O)NC(C)C)c2n1-c1ccccc1CC2 | -0.14 | -1.5 g | 1.47 | 155% | 94% | 134% | -2.8 g | -1.64 | -3.6 g | TDS (Mus musculus [22]): 6; TDS (Mus musculus [23]): 6; TDS (Mus musculus [24]): 6; TDS (Mus musculus [25]): 0 |
